The record followed here is ChEMBL document CHEMBL2203097, “7-Phenyl-pyrido[2,3-d]pyrimidine-2,4-diamines: novel and highly selective protein tyrosine phosphatase 1B inhibitors” (Bioorg Med Chem Lett, 2012).

The target in data set [1] is T1, Tyrosine-protein phosphatase non-receptor type 1 (Homo sapiens, UniProt P18031).
T1 sequence (P18031 whole entry): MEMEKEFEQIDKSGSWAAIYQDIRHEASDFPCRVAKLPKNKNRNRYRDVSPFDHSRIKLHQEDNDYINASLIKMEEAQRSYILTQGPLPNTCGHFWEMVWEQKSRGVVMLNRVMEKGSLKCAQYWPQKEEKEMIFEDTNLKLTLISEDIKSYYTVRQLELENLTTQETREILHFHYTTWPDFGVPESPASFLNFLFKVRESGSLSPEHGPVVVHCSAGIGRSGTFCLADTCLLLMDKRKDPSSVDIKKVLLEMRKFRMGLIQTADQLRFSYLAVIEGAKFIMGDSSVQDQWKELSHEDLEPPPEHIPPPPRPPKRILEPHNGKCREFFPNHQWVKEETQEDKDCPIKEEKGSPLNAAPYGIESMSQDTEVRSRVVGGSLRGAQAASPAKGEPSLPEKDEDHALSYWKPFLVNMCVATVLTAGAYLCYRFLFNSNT
Description: Inhibition of human PTP1B (1 to 321 amino acid residues) expressed in Escherichia coli using TRDI(pY)E as substrate incubated for 15 mins prior to substrate addition measured after 20 mins by malachite green staining-based colorimetric assay.

The species entered for data set [2] is Homo sapiens. In words: Selectivity ratio of IC50 for YOP to IC50 for human PTP1B (1 to 321 amino acid residues).
For data set [3], the species on record is Homo sapiens. In words: Selectivity ratio of IC50 for TCPTP to IC50 for human PTP1B (1 to 321 amino acid residues).
The species entered for data set [4] is Homo sapiens. Description: Selectivity ratio of IC50 for SHP2 to IC50 for human PTP1B (1 to 321 amino acid residues).
The species entered for data set [5] is Homo sapiens. Description: Selectivity ratio of IC50 for HCP to IC50 for human PTP1B (1 to 321 amino acid residues).
The species named for data set [6] is Homo sapiens. In words: Selectivity ratio of IC50 for PTPgamma to IC50 for human PTP1B (1 to 321 amino acid residues).
The species named for data set [7] is Homo sapiens. In words: Selectivity ratio of IC50 for PTPepsilon to IC50 for human PTP1B (1 to 321 amino acid residues).
The species entered for data set [8] is Homo sapiens. Description: Selectivity ratio of IC50 for CD45 to IC50 for human PTP1B (1 to 321 amino acid residues).
For data set [9], the species on record is Homo sapiens. In words: Selectivity ratio of IC50 for PTPbeta to IC50 for human PTP1B (1 to 321 amino acid residues).
The species entered for data set [10] is Homo sapiens. In words: Selectivity ratio of IC50 for PTPalpha to IC50 for human PTP1B (1 to 321 amino acid residues).
Data set [11] is filed under the species Homo sapiens. In words: Selectivity ratio of IC50 for LAR to IC50 for human PTP1B (1 to 321 amino acid residues).
A short description of data set [12]: Oral bioavailability in C57 mouse at 50 mg/kg. Format: ADME, organism-based. The conditions noted are these: in vivo.
Data set [13] in a line: Half life in C57 mouse at 50 mg/kg, po. Details: dose 50 mg/kg, route oral. The conditions noted are these: in vivo. The data set is classed as ADME, organism-based.
The nature of data set [14]: AUC in C57 mouse at 50 mg/kg, po. The data set is classed as ADME, organism-based. Details: dose 50 mg/kg, route oral. The conditions noted are these: plasma.
Data set [15] is described as follows: Cmax in C57 mouse at 50 mg/kg, po. The conditions noted are these: in vivo. Format: ADME, organism-based. Details: dose 50 mg/kg, route oral.
Data set [16] can be described thus: AUC in C57 mouse at 10 mg/kg, iv. The data set is classed as ADME, organism-based. The conditions noted are these: plasma. Details: dose 10 mg/kg, route intravenous.
Data set [17] is described as follows: Volume of distribution in C57 mouse at 10 mg/kg, iv. The data set is classed as ADME, organism-based. Also on record: dose 10 mg/kg, route intravenous. Conditions: in vivo.
Data set [18] can be described thus: Clearance in C57 mouse at 10 mg/kg, iv. Format: ADME, organism-based. Also on record: dose 10 mg/kg, route intravenous. The conditions noted are these: in vivo.
The nature of data set [19]: AUC in C57 mouse at 5 mg/kg, iv. Format: ADME, organism-based. Also on record: dose 5 mg/kg, route intravenous. Conditions: plasma.
A short description of data set [20]: Volume of distribution in C57 mouse at 5 mg/kg, iv. Also on record: dose 5 mg/kg, route intravenous. Conditions: in vivo. The data set is classed as ADME, organism-based.
Data set [21] is described as follows: Clearance in C57 mouse at 5 mg/kg, iv. Format: ADME, organism-based. Also on record: dose 5 mg/kg, route intravenous. The conditions noted are these: in vivo.
The target of data set [22] is T2, Tyrosine-protein phosphatase non-receptor type 1 (Homo sapiens) (UniProt P18031).
T2 sequence (whole entry): T1 sequence (P18031 whole entry)
Conditions: 0.29 to 3.3 uM.
Description: Uncompetitive inhibition of human PTP1B (1 to 321 amino acid residues) expressed in Escherichia coli using DiFMUP as substrate at 0.29 to 3.3 uM by Lineweaver-Burke plot analysis

Activity calls are given as the source filed them.

As usually defined, the IC50 is the midpoint of a concentration-inhibition curve. Read a high IC50 as a need for much substance. For orientation: bioavailability means the share of a dose that reaches the circulation, judged against a reference dose that is usually intravenous. As a reminder, the half-life is the time needed for the level to fall by half in the phase considered. A high value points to slow loss. In general, AUC refers to the area under the concentration-time curve, a measure of exposure. Read a low AUC as low exposure. One may read the Cmax as the highest concentration seen after dosing. Usually Vd stands for a proportionality between amount in the body and measured concentration, not a real space. As a reminder, the clearance is the volume of plasma or blood freed of the substance per unit of time.

In the case of `CNc1nc(N)nc2nc(-c3ccc(Cl)cc3Cl)ccc12`, in [1], half-maximal inhibition (IC50) was put at 610 nM. This counts as sub-micromolar.
For the molecule `CNc1nc(N)nc2nc(-c3c(Oc4ccccc4)cccc3C(F)(F)F)ccc12`, the Ratio IC50 was more than 100 in the data set filed under Homo sapiens [2]; 2 in the data set filed under Homo sapiens [3]; more than 100 in the data set listed under Homo sapiens [4]; more than 100 in the data set listed under Homo sapiens [5]; more than 100 in the data set filed under Homo sapiens [6]; more than 100 in the data set listed under Homo sapiens [7]. The Ratio IC50 in the data set filed under Homo sapiens [8], in the data set filed under Homo sapiens [9], in the data set filed under Homo sapiens [10] and in the data set filed under Homo sapiens [11] was more than 100 in each case. This molecule also showed a bioavailability in [12] of 32%. The half-life in [13] was 1.3 h. For the same molecule, the figures for the exposure (AUC) in data set [14] and in [16] were 11000 ng·h/mL and 6970 ng·h/mL, respectively. In data set [15], this molecule came in with a Cmax of 2200 ng/mL. The same molecule yielded a Vd in data set [17] of 0.9 L/kg. The molecule further yielded a clearance in data set [18] of 24 mL/min/kg. In data set [1], the IC50 came out at 200 nM.
In data set [1], `Nc1nc(NCCO)c2ccc(-c3ccccc3C(F)(F)F)nc2n1` had a concentration for half-maximal inhibition (IC50) of 1850 nM.
`CNc1nc(N)nc2nc(-c3c(F)cccc3N3CCCC3)ccc12` returned an IC50 in data set [1] of 620 nM.
In the case of `CNc1nc(N)nc2nc(-c3cc(Cl)ccc3Cl)ccc12`, 960 nM corresponded to half-maximal inhibition in data set [1] (IC50).
With `CNc1nc(N)nc2nc(-c3ccccc3C(F)(F)F)c(C)cc12`, in data set [1], the half-inhibitory concentration (IC50) amounted to 500 nM.
`CCCc1cc2c(NC)nc(N)nc2nc1-c1ccccc1C(F)(F)F` came in with an IC50 in [1] of 270 nM. Compared with the last molecule, the IC50 is about 1.9-fold lower.
`CNc1nc(N)nc2nc(-c3ccccc3C(=O)O)ccc12` gave a concentration for half-maximal inhibition (IC50) in [1] of 2390 nM.
Same read-out and setting: the result for `CNc1nc(N)nc2nc(-c3ccccc3Br)ccc12` reads 530 nM.
Molecule `CNc1nc(N)nc2nc(-c3ccccc3C(F)(F)F)c(S(C)(=O)=O)cc12` yielded an IC50 in [1] of 1000 nM.
In turn, `CNc1nc(N)nc2nc(-c3c(N4CCCCC4)cccc3C(F)(F)F)ccc12` gave a half-inhibitory concentration (IC50) in [1] of 1350 nM.
The same measure, in the same setting: the result for `CNc1nc(N)nc2nc(-c3c(OC)cccc3C(F)(F)F)ccc12` reads 560 nM.
For the molecule `CNc1nc(N)nc2nc(-c3ccccc3OC)ccc12`, in data set [1], it took 2790 nM to reach half-maximal inhibition (IC50).
`CNc1nc(N)nc2nc(-c3c(Cl)cccc3N3CCCC3)ccc12` registered an IC50 in data set [1] of 820 nM.
`CNc1nc(N)nc2nc(-c3c(N4CCOCC4)cccc3C(F)(F)F)ccc12`: the IC50 in data set [1] amounted to 1150 nM.
In the case of `CCCNc1nc(N)nc2nc(-c3ccccc3C(F)(F)F)ccc12`, it took 2430 nM to reach half-maximal inhibition in [1] (IC50).
Regarding `CNc1nc(N)nc2nc(-c3ccccc3[N+](=O)[O-])ccc12`, the IC50 in [1] was 1370 nM.
For `CNc1nc(N)nc2nc(-c3c(SC)cccc3C(F)(F)F)ccc12`, in data set [1], the 50% inhibitory concentration (IC50) came to 350 nM.
On the same count and under the same terms, the result for `CNc1nc(N)nc2nc(-c3cccc(Cl)c3Cl)ccc12` reads 1180 nM; that for `CCNc1nc(N)nc2nc(-c3ccccc3C(F)(F)F)ccc12`, 1340 nM; that for `CNc1nc(N)nc2nc(-c3ccccc3Cl)ccc12`, 1160 nM.
In the case of `CNc1nc(N)nc2nc(-c3c(F)cccc3C(F)(F)F)ccc12`, the concentration for half-maximal inhibition (IC50) in [1] worked out at 260 nM.
For the molecule `CNc1nc(N)nc2nc(-c3ccccc3C(F)(F)F)ccc12`, the Ratio IC50 is more than 100 in the data set filed under Homo sapiens [2]; 2 in the data set filed under Homo sapiens [3]; more than 100 in the data set listed under Homo sapiens [4]; more than 100 in the data set listed under Homo sapiens [5]; more than 100 in the data set filed under Homo sapiens [6]; more than 100 in the data set filed under Homo sapiens [7]. For the same molecule, the Ratio IC50 in the data set filed under Homo sapiens [8], in the data set filed under Homo sapiens [9], in the data set listed under Homo sapiens [10] and in the data set filed under Homo sapiens [11] was more than 100 throughout. Also, in [12], the bioavailability was determined as 66%. For the same molecule, the half-life in [13] is 7.2 h. Further, the exposure (AUC) is 8990 ng·h/mL in [14] and 1370 ng·h/mL in [19]. The Cmax in [15] was 3530 ng/mL. Further, the Vd in data set [20] was determined as 1.8 L/kg. In [21], this molecule gave a clearance of 61 mL/min/kg. The molecule further yielded an IC50 in data set [1] of 480 nM. For the same molecule, the inhibition entry in data set [22] is “Active”.
With `CNc1nc(N)nc2nc(-c3c(N4CCCC4)cccc3C(F)(F)F)ccc12`, the midpoint of inhibition in data set [1], the IC50, lay at 430 nM.
